Molecules are shown by their SMILES.

The values below come from article PMC10497752, “Heparins are potent inhibitors of ectonucleotide pyrophosphatase/phospho-diesterase-1 (NPP1) – a promising target for the immunotherapy of cancer” (Frontiers in Immunology, 2023).

The subject of this assay is ectonucleotidases expressed in U87 cell membrane preparations. Kind of assay: Enzymatic assay on U87 cell membrane preparations (adenosine formation, CE). The format is biochemical, human. To be noted: 10 µg, 30 min 37°C, substrate 6 to 500 µM. As to the method: U87 glioblastoma cells were grown in cell culture dishes until reaching a fully covered confluent cell layer. Cells were cultivated at 37°C and 5% CO2 in DMEM with additions of 10% FCS, 1% penicillin/streptomycin (P/S) mixture and 1% L-glutamine. When confluent, the cell culture media was carefully removed and cells were frozen at -20°C overnight. The cells were then scraped off with a cell scraper using 2-3 mL of buffer (5 mM Tris, 2 mM EDTA, pH 7.4), homogenized and centrifuged for 10 min at 1000 g. The supernatant was collected and centrifuged for 60 min at 48000 g and 4°C. The pellet was then resuspended twice with Tris buffer, pH 7.4, followed by vortexing and centrifugation. The whole procedure was performed on ice. Finally, the pellet was resuspended and homogenized. A protein concentration of 1.5 mg/mL was determined with the Bradford method ([35]), and the protein was kept at -20°C until used. The enzymatic assay was performed by incubating the membrane preparation and the substrate at 37°C and 500 rpm for 30 min, followed by heat inactivation at 95°C for 5 min. For the determination of kinetic parameters, several substrate concentrations (from 6 to 500 µM of ATP or AMP) were utilized and incubated with 10 µg of membrane preparation for 30 min at 37°C, followed by heat inactivation. Capillary electrophoresis (CE) was used for analysis and quantification of the enzymatic product according to published procedures ([11], [36]). For the determination of the enzymatic activity 400 µM of ATP were employed, and three different amounts of membrane preparation (6, 10 and 30 µg of protein) were utilized. A positive control using the known NPP1 inhibitor PSB-POM-141 (20 µM) was performed ([19]). Data were obtained from three independent experiments each in duplicate measurements. […] Controls were run in parallel.

As for `Nc1ncnc2c1ncn2[C@@H]1O[C@H](COP(=O)(O)O)[C@@H](O)[C@H]1O` [AMP], the Km is 38 µM.
`Nc1ncnc2c1ncn2[C@@H]1O[C@H](COP(=O)(O)OP(=O)(O)OP(=O)(O)O)[C@@H](O)[C@H]1O` [ATP]: the Km was 83 µM.

As a reminder, the Km is the substrate concentration at which the rate is half of its maximum.
